From PMC9683047, “Design, synthesis and biological evaluation of 4-aminoquinoline derivatives as receptor-interacting protein kinase 2 (RIPK2) inhibitors” (Journal of Enzyme Inhibition and Medicinal Chemistry, 2022)

Legend:
Assay type in all cases: biochemical
[1] = molecular target: T1, Rse(h) (Homo sapiens, UniProt Q06418); assay: Kinase selectivity panel: Rse; details: 1 µM
T1 construct: purchased Eurofins (Millipore) KinaseProfiler Diversity Panel
Procedure: (§1) To confirm the anti-inflammatory effect was caused by RIPK2 inhibition, compound 14 was subjected to kinase selectivity evaluation (Figure 4). Kinase selectivity profile of compound 14 as shown by the diversity kinase Panel screen against 70 kinases assayed at 1 µM. Among all tested 70 kinases, only five were inhibited over 90% at 1 µM including Fyn, Lyn, BTK, Abl and RIPK2. Three kinases including KDR, CDK9 and LOK were inhibited 50–90% at 1 µM.

[2] = molecular target: T2, EGFR(h) (Homo sapiens, UniProt P00533); assay: Kinase selectivity panel: EGFR; parameters: unit not given here
T2 construct: purchased Eurofins (Millipore) KinaseProfiler Diversity Panel
Procedure: as §1

[3] = molecular target: T3, ASK1(h) (Homo sapiens, UniProt Q99683); assay: Kinase selectivity panel: ASK1
T3 construct: purchased Eurofins (Millipore) KinaseProfiler Diversity Panel
Procedure: as §1

[4] = molecular target: T4, mTOR(h) (Homo sapiens, UniProt P42345); assay: Kinase selectivity panel: mTOR
T4 construct: purchased Eurofins (Millipore) KinaseProfiler Diversity Panel
Procedure: as §1

[5] = molecular target: T5, RIPK2 (Homo sapiens, UniProt O43353); assay: RIPK2 kinase inhibition assay (ADP-Glo); details: mean ± SD from two separate experiments
T5 construct: purchased Promega
Procedure: RIPK2 kinase activity was analysed using the ADP-Glo™ Assay Kit (RIPK2 Kinase Enzyme System, Promega, USA). Reactions were performed according to the instructions. Specific signal was calculated by subtracting values in the wells without protein and inhibitor from the values in the test wells.

[6] = molecular target: T6, TAK1(h) (Homo sapiens, UniProt O43318); assay: Kinase selectivity panel: TAK1; details: 1 µM
T6 construct: purchased Eurofins (Millipore) KinaseProfiler Diversity Panel
Procedure: as §1

[7] = molecular target: T7, JAK3(h) (Homo sapiens, UniProt P52333); assay: Kinase selectivity panel: JAK3; details: 1 µM
T7 construct: purchased Eurofins (Millipore) KinaseProfiler Diversity Panel
Procedure: as §1

[8] = molecular target: T8, p70S6K(h) (Homo sapiens, UniProt P23443); assay: Kinase selectivity panel: p70S6K
T8 construct: purchased Eurofins (Millipore) KinaseProfiler Diversity Panel
Procedure: as §1

[9] = molecular target: T9, TBK1(h) (Homo sapiens, UniProt Q9UHD2); assay: Kinase selectivity panel: TBK1
T9 construct: purchased Eurofins (Millipore) KinaseProfiler Diversity Panel
Procedure: as §1

[10] = molecular target: T10, Mnk2(h) (Homo sapiens, UniProt Q9HBH9); assay: Kinase selectivity panel: Mnk2
T10 construct: purchased Eurofins (Millipore) KinaseProfiler Diversity Panel
Procedure: as §1

[11] = molecular target: T11, PAK2(h) (Homo sapiens, UniProt Q13177); assay: Kinase selectivity panel: PAK2; details: 1 µM
T11 construct: purchased Eurofins (Millipore) KinaseProfiler Diversity Panel
Procedure: as §1

[12] = molecular target: T12, Rsk1(h) (Homo sapiens, UniProt Q15418); assay: Kinase selectivity panel: Rsk1; details: 1 µM
T12 construct: purchased Eurofins (Millipore) KinaseProfiler Diversity Panel
Procedure: as §1

[13] = molecular target: T13, CK2α2(h) (Homo sapiens, UniProt P19784); assay: Kinase selectivity panel: CK2α2
T13 construct: purchased Eurofins (Millipore) KinaseProfiler Diversity Panel
Procedure: as §1

[14] = molecular target: T14, KDR(h) (Homo sapiens, UniProt P35968); assay: Kinase selectivity panel: KDR; parameters: KDR(h), 14 @ 1 µM: unit not given here
T14 construct: purchased Eurofins (Millipore) KinaseProfiler Diversity Panel
T14 sequence (P35968 20-1356): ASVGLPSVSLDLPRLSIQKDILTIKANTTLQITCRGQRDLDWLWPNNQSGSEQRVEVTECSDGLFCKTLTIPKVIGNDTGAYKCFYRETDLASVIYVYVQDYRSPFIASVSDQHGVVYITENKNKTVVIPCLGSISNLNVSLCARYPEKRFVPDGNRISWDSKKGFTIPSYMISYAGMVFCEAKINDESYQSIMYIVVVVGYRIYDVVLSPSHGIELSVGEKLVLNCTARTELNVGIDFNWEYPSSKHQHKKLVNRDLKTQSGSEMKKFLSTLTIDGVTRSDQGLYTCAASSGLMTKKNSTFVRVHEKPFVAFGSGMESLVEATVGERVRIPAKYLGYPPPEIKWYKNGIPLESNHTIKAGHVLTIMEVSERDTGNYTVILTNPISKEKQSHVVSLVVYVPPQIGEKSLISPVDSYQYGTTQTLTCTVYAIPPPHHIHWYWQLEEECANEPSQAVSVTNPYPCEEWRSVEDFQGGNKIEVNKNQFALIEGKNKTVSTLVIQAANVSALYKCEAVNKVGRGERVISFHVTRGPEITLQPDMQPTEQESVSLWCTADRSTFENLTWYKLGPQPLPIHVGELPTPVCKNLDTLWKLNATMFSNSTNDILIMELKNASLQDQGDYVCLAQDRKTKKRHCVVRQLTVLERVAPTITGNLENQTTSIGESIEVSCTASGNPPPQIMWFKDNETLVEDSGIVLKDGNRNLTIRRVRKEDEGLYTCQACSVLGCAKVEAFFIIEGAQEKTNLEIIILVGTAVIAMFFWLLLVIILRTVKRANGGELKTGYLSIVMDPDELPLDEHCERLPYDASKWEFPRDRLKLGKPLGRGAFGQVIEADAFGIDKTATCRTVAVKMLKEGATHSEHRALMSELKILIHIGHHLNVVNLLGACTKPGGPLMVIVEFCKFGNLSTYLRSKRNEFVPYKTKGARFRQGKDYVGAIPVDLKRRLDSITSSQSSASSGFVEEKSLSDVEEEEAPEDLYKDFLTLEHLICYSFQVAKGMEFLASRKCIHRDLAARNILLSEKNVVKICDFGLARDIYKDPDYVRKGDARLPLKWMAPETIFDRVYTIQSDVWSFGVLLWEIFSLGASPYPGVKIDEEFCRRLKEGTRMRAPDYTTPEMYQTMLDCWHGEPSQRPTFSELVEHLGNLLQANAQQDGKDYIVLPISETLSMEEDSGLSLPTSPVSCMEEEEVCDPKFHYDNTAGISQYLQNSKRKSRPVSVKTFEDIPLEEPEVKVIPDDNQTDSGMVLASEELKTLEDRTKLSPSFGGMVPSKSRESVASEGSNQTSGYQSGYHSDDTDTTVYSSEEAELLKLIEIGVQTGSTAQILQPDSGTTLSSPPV
Procedure: as §1

[15] = molecular target: T15, IKKα(h) (Homo sapiens, UniProt O15111); assay: Kinase selectivity panel: IKKα
T15 construct: purchased Eurofins (Millipore) KinaseProfiler Diversity Panel
Procedure: as §1

[16] = molecular target: T16, IRAK1(h) (Homo sapiens, UniProt P51617); assay: Kinase selectivity panel: IRAK1
T16 construct: purchased Eurofins (Millipore) KinaseProfiler Diversity Panel
Procedure: as §1

[17] = molecular target: T17, SAPK2a(h) (Homo sapiens, UniProt Q16539); assay: Kinase selectivity panel: SAPK2a
T17 construct: purchased Eurofins (Millipore) KinaseProfiler Diversity Panel
Procedure: as §1

[18] = molecular target: T18, MSK2(h) (Homo sapiens, UniProt O75676); assay: Kinase selectivity panel: MSK2
T18 construct: purchased Eurofins (Millipore) KinaseProfiler Diversity Panel
Procedure: as §1

[19] = molecular target: T19, PRAK(h) (Homo sapiens, UniProt Q8IW41); assay: Kinase selectivity panel: PRAK; details: 1 µM
T19 construct: purchased Eurofins (Millipore) KinaseProfiler Diversity Panel
Procedure: as §1

[20] = molecular target: T20, PI3 Kinase (p110b/p85a)(h) (Homo sapiens, UniProt P42338); assay: Kinase selectivity panel: PI3 Kinase (p110b/p85a)
T20 construct: purchased Eurofins (Millipore) KinaseProfiler Diversity Panel
Procedure: as §1

[21] = molecular target: T21, PKCα(h) (Homo sapiens, UniProt P17252); assay: Kinase selectivity panel: PKCα; details: 1 µM
T21 construct: purchased Eurofins (Millipore) KinaseProfiler Diversity Panel
Procedure: as §1

[22] = molecular target: T22, Abl(h) (Homo sapiens, UniProt P00519); assay: Kinase selectivity panel: Abl
T22 construct: purchased Eurofins (Millipore) KinaseProfiler Diversity Panel
T22 sequence (P00519 whole entry): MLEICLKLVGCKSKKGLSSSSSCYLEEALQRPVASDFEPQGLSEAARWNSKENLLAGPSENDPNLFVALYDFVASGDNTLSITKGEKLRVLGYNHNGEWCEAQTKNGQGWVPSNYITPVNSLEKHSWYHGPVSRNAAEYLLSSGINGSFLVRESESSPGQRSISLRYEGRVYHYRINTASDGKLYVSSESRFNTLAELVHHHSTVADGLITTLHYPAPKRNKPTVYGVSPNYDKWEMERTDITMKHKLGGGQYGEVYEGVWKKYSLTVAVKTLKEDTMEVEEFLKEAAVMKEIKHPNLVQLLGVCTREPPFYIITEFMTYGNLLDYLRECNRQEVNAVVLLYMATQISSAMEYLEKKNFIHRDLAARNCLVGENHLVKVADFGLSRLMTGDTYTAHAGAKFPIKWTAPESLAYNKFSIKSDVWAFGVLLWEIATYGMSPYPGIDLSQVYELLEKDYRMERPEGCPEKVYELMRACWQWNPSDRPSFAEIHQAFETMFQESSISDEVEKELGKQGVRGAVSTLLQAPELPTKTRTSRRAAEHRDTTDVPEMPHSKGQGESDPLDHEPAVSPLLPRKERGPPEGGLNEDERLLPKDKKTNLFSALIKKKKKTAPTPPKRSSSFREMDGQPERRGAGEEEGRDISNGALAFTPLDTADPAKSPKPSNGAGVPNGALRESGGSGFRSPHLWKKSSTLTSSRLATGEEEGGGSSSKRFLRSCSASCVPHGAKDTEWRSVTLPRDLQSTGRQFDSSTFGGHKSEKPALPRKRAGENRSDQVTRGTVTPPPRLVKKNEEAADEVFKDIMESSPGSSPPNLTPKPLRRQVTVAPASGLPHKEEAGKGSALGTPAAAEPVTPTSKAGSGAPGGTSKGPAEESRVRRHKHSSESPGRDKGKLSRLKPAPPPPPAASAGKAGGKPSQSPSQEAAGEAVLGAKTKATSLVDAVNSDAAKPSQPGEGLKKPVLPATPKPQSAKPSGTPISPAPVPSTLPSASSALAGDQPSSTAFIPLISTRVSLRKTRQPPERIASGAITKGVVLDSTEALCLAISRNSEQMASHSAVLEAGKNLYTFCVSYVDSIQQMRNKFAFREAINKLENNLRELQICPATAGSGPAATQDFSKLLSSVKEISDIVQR
Procedure: as §1

[23] = molecular target: T23, CDK2/cyclinA(h) (Homo sapiens, UniProt P24941); assay: Kinase selectivity panel: CDK2/cyclinA
T23 construct: purchased Eurofins (Millipore) KinaseProfiler Diversity Panel
Procedure: as §1

[24] = molecular target: T24, IGF-1R(h) (Homo sapiens, UniProt P08069); assay: Kinase selectivity panel: IGF-1R; details: 1 µM
T24 construct: purchased Eurofins (Millipore) KinaseProfiler Diversity Panel
Procedure: as §1

[25] = molecular target: T25, EphA5(h) (Homo sapiens, UniProt P54756); assay: Kinase selectivity panel: EphA5; details: 1 µM
T25 construct: purchased Eurofins (Millipore) KinaseProfiler Diversity Panel
Procedure: as §1

[26] = molecular target: T26, RIPK1 (Homo sapiens, UniProt Q13546); assay: RIPK1 inhibition rate at 1 µM
T26 sequence (Q13546 1-671): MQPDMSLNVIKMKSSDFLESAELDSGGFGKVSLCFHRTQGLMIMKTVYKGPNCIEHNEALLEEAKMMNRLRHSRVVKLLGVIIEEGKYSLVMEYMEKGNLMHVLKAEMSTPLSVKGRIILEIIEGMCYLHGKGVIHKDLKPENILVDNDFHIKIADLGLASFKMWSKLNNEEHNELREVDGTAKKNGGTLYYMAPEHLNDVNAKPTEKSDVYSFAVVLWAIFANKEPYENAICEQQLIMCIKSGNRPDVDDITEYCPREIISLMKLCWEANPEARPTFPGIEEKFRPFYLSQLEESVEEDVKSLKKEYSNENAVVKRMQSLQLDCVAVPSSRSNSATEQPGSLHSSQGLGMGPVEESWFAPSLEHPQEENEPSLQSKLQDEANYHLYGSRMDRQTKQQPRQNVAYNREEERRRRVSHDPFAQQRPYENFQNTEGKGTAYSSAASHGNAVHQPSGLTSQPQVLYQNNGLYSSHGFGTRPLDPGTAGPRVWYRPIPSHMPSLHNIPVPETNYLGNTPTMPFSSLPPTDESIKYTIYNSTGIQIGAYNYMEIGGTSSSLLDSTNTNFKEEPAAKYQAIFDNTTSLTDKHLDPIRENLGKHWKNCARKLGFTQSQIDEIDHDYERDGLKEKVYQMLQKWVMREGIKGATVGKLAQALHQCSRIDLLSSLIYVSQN
Procedure: Table 4. Selectivity, ClogP and LipE of compound 14, 15, 21, 32, 36. | column: RIPK1 IR@1µM (%)

[27] = molecular target: T27, Pim-1(h) (Homo sapiens, UniProt P11309); assay: Kinase selectivity panel: Pim-1
T27 construct: purchased Eurofins (Millipore) KinaseProfiler Diversity Panel
Procedure: as §1

[28] = molecular target: T28, PI3 Kinase (p110a/p85a)(h) (Homo sapiens, UniProt P42336); assay: Kinase selectivity panel: PI3 Kinase (p110a/p85a); details: 1 µM
T28 construct: purchased Eurofins (Millipore) KinaseProfiler Diversity Panel
T28 sequence (P42336 whole entry): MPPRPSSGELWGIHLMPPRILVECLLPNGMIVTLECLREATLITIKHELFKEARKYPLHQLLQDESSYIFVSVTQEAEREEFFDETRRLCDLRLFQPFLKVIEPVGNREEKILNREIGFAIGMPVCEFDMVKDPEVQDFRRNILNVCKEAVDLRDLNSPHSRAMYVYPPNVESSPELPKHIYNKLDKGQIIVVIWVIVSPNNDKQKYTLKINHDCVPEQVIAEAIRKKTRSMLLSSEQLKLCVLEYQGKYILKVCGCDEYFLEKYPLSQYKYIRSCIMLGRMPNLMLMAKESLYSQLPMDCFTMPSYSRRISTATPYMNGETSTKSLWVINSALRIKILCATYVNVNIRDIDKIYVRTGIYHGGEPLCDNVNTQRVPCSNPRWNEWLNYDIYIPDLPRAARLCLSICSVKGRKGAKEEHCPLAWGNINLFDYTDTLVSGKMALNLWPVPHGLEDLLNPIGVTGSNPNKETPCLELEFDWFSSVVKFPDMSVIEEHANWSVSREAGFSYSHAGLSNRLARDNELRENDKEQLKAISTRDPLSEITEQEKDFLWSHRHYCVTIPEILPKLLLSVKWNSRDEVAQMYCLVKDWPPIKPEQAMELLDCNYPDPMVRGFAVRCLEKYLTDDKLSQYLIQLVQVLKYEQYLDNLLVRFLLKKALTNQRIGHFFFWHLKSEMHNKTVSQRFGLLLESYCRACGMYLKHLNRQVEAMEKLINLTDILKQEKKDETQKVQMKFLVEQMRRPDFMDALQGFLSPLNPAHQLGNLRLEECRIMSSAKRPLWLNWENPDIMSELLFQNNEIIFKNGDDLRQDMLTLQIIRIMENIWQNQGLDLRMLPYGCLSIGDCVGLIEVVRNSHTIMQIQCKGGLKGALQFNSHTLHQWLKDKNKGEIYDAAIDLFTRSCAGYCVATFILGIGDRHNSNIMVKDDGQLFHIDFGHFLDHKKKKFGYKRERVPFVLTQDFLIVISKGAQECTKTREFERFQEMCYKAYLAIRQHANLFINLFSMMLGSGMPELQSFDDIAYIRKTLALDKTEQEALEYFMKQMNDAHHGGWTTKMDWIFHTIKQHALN
T28 sequence (P27986 whole entry partner): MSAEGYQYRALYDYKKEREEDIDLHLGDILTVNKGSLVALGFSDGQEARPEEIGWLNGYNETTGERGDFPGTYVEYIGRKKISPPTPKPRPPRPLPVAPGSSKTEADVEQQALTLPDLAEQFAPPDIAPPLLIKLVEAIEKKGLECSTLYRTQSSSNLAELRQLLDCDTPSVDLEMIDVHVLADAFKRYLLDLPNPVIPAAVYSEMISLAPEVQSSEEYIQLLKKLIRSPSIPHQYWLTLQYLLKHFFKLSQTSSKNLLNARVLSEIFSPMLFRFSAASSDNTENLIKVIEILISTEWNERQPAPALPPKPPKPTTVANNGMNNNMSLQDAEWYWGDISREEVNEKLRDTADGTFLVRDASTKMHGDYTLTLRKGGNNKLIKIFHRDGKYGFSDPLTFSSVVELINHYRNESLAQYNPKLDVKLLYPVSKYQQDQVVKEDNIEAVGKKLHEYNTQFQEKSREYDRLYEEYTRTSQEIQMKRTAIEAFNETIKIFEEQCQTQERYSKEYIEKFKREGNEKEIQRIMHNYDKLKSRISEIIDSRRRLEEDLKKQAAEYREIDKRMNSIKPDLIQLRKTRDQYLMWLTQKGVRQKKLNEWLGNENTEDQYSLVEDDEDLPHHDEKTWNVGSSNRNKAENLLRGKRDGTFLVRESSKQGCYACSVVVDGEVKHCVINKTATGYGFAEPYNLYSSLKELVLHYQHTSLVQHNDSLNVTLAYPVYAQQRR
Procedure: as §1

[29] = molecular target: T29, BTK(R28H)(h) (Homo sapiens, UniProt Q06187, R28H); assay: Kinase selectivity panel: BTK(R28H); details: 1 µM
T29 construct: purchased Eurofins (Millipore) KinaseProfiler Diversity Panel
Procedure: as §1

T1 sequence (Q06418 41-890): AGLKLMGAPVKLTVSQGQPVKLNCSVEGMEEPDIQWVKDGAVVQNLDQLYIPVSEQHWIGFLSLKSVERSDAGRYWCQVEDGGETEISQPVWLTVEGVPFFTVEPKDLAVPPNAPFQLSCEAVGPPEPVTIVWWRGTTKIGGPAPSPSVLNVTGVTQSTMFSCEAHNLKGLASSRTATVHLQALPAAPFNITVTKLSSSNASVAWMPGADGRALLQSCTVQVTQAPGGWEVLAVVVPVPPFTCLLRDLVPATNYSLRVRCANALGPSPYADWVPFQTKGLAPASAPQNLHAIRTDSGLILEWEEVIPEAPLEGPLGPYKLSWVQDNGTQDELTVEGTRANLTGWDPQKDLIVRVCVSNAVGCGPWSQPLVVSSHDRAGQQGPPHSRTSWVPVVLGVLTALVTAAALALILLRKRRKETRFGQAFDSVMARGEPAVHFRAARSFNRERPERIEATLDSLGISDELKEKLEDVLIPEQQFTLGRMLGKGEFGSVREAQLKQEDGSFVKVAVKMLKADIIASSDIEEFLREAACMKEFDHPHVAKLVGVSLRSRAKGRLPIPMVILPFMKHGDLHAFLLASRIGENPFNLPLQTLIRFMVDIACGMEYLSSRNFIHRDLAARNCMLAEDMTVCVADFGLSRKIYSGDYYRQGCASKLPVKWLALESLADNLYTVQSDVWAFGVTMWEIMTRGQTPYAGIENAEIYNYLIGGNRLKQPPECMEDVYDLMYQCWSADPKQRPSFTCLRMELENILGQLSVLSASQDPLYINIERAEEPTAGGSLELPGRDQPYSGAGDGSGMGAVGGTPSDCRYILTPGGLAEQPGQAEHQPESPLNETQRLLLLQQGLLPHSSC

Q: For `c1cc(-c2ccc3nccc(Nc4ccc5scnc5c4)c3c2)ccn1` [Compound 14, N-(6-(pyridin-4-yl)quinolin-4-yl)benzo[d]thiazol-5-amine], which “Remaining kinase activity (% of control)” value [1] is on record?
A: Its value is 121.

Q: What about the “EGFR(h), 14 @ 1 µM” value [2] of the same compound?
A: Its value is 104.

Q: What about the “ASK1 remaining activity (% of control) with compound 14 at 1 µM” value [3] of the same compound?
A: The value was 87.

Q: And the “% remaining mTOR activity with compound 14 at 1 µM” value [4]?
A: The value was 106.

Q: What about the IC50 [5] of the same compound?
A: The IC50 was 5.1 ± 1.6 nM.

Q: What about the “Remaining kinase activity (% of control)” value [6] of the same compound?
A: The value was 90.

Q: And the “Remaining kinase activity (% of control)” value [7]?
A: The value was 100.

Q: And the “Remaining kinase activity (% of control) at 1 µM compound 14” value [8]?
A: Its value is 95.

Q: And the “TBK1 remaining activity (%) with compound 14 at 1 µM” value [9]?
A: Its value is 97.

Q: And the “Mnk2 remaining activity (% of control) with compound 14 at 1 µM” value [10]?
A: Its value is 68.

Q: What about the “percent remaining kinase activity” value [11] of the same compound?
A: Its value is 100.

Q: What about the “Rsk1 kinase activity remaining (% of control)” value [12] of the same compound?
A: The value was 98.

Q: And the “Remaining CK2α2 kinase activity (%) with compound 14 at 1 µM” value [13]?
A: Its value is 104.

Q: What about the “KDR(h), 14 @ 1 µM” value ([14]; 1 µM) of the same compound?
A: The value was 11.

Q: And the inhibition at 1 µM ([14]; at 1 µM)?
A: Its inhibition at 1 µM is 50 to 90%.

Q: What about the “Remaining IKKα activity at 1 µM (% of control)” value [15] of the same compound?
A: The value was 104.

Q: What about the “IRAK1 remaining activity (% of control) with compound 14 at 1 µM” value [16] of the same compound?
A: Its value is 91.

Q: And the “% remaining SAPK2a activity with compound 14 at 1 µM” value [17]?
A: Its value is 54.

Q: What about the “MSK2 remaining kinase activity (% of control) with compound 14 at 1 µM” value [18] of the same compound?
A: The value was 107.

Q: What about the “remaining kinase activity (%)” value [19] of the same compound?
A: Its value is 123.

Q: What about the “remaining kinase activity (% of control) with compound 14 at 1 µM” value [20] of the same compound?
A: Its value is 88.

Q: And the “% remaining kinase activity” value [21]?
A: The value was 94.

Q: What about the “Abl remaining activity (% of control)” value ([22]; 1 µM) of the same compound?
A: Its value is 9.

Q: And the inhibition at 1 µM ([22]; at 1 µM)?
A: The inhibition at 1 µM was over 90%.

Q: And the “CDK2/cyclinA remaining activity (%) with compound 14 at 1 µM” value [23]?
A: The value was 78.

Q: And the “remaining IGF-1R activity (% of control)” value [24]?
A: Its value is 109.

Q: What about the “Remaining kinase activity (% of control)” value [25] of the same compound?
A: The value was 96.

Q: And the “RIPK1 IR@1µM (%)” value [26]?
A: Its value is under 1%.

Q: What about the “remaining kinase activity (% of control) with compound 14 at 1 µM” value [27] of the same compound?
A: Its value is 78.

Q: And the “percent remaining kinase activity” value [28]?
A: Its value is 81.

Q: And the “percent remaining kinase activity” value [29]?
A: Its value is 63.
